The text below walks through data of patent US20040072368A1, “Lipoprotein receptor” (priority 2002, published 2004).

One test has as its system HepG2 cells. Description: Competitive inhibition of binding of 125I-labeled apoA-I to HepG2 cells. Also noted: species or system human. Particulars: 1 μg/ml 125I-apoA-I, no competitor, 2 h at 4° C. The protocol: HepG2 cells (panel A) and submitochondrial particles (panel B) are incubated for 2 h at 4° C. in the presence of 1 μg/ml ^125I-labeled apoA-1 and 5 μg/ml ^125I-labeled HDL3 respectively, in the presence of increasing concentrations of either unlabeled apoA-I (◯, panel A), unlabeled HDL3 (●, panel B), anti β-subunit of ATP synthase mouse monoclonal IgG2a (□) or purified isotype mouse IgG2a (♦). The 100% specific binding corresponds to 25,5 ng apoA-I bound per mg of cell proteins (panel A) and 2050 ng HDL3 protein bound per mg of mitochondrial proteins (panel B). Fab fragments from anti-β-subunit of ATP synthase are also used as competitors and results are identical to anti β-subunit IgG2a (data not shown). The results are representative of three independent series of experiments.
The competition experiments are performed at 4° C. for 2 h as previously described (6). […] Cells are washed twice with ice-cold PBS (maximum washing time is 15 s), lysed with 500 μl of 0.1 N NaOH, and the NaOH digest is used for radioactivity measurement and protein determination. […] Filters are used for radioactivity measurements. […] Data are expressed as the percentage of the specific binding measured in the absence of competitor versus the log of competitor concentration (in nM).

Test [1] addresses T1, β-subunit of ATP synthase (Homo sapiens, UniProt P06576).
T1 construct: endogenous in cells; host or cells: HepG2 (ATCC)
In words: Flow cytometry detection of cell surface β-subunit of ATP synthase. Type of test: cell-based. Particulars: excess of free-apoA-I (100 nM), HepG2 cells. How it is done:
HepG2 and CHO cells were analyzed by fluorescence-assisted flow cytometry. Plots are shown for HepG2 (panel A) and CHO (panel C) where solid lines represent cells incubated with an anti b-subunit of ATP synthase mouse monoclonal IgG2a in absence (e) or presence (d) of 100 nM apoA-I, 250 μg/ml of FI-ATPase (c) or incubated with an isotypic control mouse IgG2a (a) and […] anti cytochrome oxidase subunit I mouse monoclonal IgG2a (b, dashed lines). In panel B and D, the histograms are expressed as the mean relative fluorescence of the curves a to e on HepG2 (B) or CHO cells (D).
For analysis of the cell surface EGF receptor, HepG2 cells are preincubated in medium with or without 20 nM EGF for 10 min at 37° C. For flow cytometry analysis, HepG2 and CHO cells are detached by incubation with Ca2+, Mg2+free PBS containing 2 mM EDTA, pH 7.4, fixed in 3% paraformaldehyde and pelleted in a microfuge. Cells are incubated at 20° C. for 1 h in PBS, pH 7.4 containing 1% BSA with either mouse monoclonal antibodies against the human β-subunit of ATP synthase, the human cytochrome oxidase subunit I, the human EGF receptor or against isotypic control IgG. […] The mean relative fluorescence after excitation at a wavelength of 488 nm is determined for each sample on a Coulter XL 4C flow cytometer and analysed with CELLQUEST software (Becton-Dickenson).
In general terms: Flow cytometry measures light scatter and fluorescence of single cells or particles in a stream.

Another test deals with EGF receptor. In words: EGF receptor internalisation by flow cytometry. Particulars: HepG2, 10 min pre-incubation, 10 μg/ml free-apoA-I or 100 nM ADP. In kind it is cell-based, human. The protocol:
Panel 4. Internalisation of EGF receptor by HepG2 cells. Cells are pre-incubated for 10 min in serum-free medium with (J) or without (K) […] EGF, or with 10 μg/ml free-apoA-I (L), 100 nM ADP (M). The amount of EGF receptor is measured by Flow Cytometry using anti-EGF receptor antibody. As a control experiment for the efficacy of EGF receptor antibody, isotypic IgG are used (I). Results are expressed as the mean relative cell fluorescence and receptor internalisation is related to lower fluorescence.
For analysis of the cell surface EGF receptor, HepG2 cells are preincubated in medium with or without 20 nM EGF for 10 min at 37° C. For flow cytometry analysis, HepG2 and CHO cells are detached by incubation with Ca2+, Mg2+free PBS containing 2 mM EDTA, pH 7.4, fixed in 3% paraformaldehyde and pelleted in a microfuge. Cells are incubated at 20° C. for 1 h in PBS, pH 7.4 containing 1% BSA with either mouse monoclonal antibodies against the human β-subunit of ATP synthase, the human cytochrome oxidase subunit I, the human EGF receptor or against isotypic control IgG. Cells are washed in PBS/BSA 1% and incubated at 20° C. for 30 min with goat […] IgG conjugated to fluorescein isothiocyanate. After a final wash, cells are pelleted and resuspended in PBS/BSA 1% at a density of 1×10^6 cells/ml. The mean relative fluorescence after excitation at a wavelength of 488 nm is determined for each sample on a Coulter XL 4C flow cytometer and analysed with CELLQUEST software (Becton-Dickenson).

The test system of another test is HepG2 cells and IHH. Description: Cholesterol efflux. In kind it is cell-based, human. The conditions noted are these: free-apoA-I.
Test [2] addresses T2, cell surface ATP synthase (Homo sapiens, UniProt P06576).
T2 construct: endogenous in cells; host or cells: HepG2
In words: Cell surface ADP generation assay (ATP hydrolysis), HPLC/TLC. Type of test: cell-based. The conditions noted are these: 10 μg/ml apoA-I, 10 min at 37° C., HepG2. The protocol:
^32Pi and ADP (panels A and B) or [α-32P] ATP (panels C, D, E and F) are added to the HepG2 cell medium as described in Experimental Procedures, and the cells are incubated for 10 min at 37° C. with 10 μg/ml apoA-I (panels B and D), 100 nM IF1 (panel E), or both IF1 […] and apoA-I at the same concentrations as above (panel F). Control experiments are performed with neither apo AI nor IF1 added into the cell medium (panel A and C). Supernatants are recovered and analysed by HPLCs.
Confluent HepG2 in 6-well plates are washed in DMEM, then incubated at 37° C. for 10 min in DMEM pH 6.6 with 0.1 μCi [α-32P] ATP for ADP generation assay, or with 0.1 μCi 32Pi and ADP (100 nM final) for ATP generation assay. Depending on the experiment, IF1 (100 nM final) or apoA-I (10 μg/ml final) are added in the reaction mixture. Supernatants are removed and analysed using two different systems: 1) by HPLC coupled to a radioactivity detector on a Whatman Partisphere 5 SAX column (Whatman International Ltd., UK) as described previously (13); calibration is done with radiolabelled nucleotides. 2) by thin layer chromatography in the solvent NaCl 2.4%/NH4OH/H2O/MeOH (12.5/15/27.5/50, v/v); radioactive spots are counted by liquid scintillation.

T2 sequence (P06576 48-529): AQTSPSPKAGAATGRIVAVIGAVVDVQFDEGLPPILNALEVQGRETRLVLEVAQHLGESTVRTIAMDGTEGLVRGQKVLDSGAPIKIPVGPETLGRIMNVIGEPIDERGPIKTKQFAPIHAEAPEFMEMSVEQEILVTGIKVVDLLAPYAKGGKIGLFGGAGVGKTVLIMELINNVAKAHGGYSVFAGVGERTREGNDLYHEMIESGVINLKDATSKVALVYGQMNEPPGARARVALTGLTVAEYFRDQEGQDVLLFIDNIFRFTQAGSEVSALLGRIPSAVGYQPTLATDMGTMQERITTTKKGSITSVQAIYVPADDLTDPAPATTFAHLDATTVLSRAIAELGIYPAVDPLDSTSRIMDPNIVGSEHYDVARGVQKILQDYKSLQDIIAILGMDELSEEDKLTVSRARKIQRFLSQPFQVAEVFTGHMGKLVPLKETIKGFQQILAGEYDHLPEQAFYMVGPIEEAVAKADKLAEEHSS
T2 sequence (P25705 44-553 partner): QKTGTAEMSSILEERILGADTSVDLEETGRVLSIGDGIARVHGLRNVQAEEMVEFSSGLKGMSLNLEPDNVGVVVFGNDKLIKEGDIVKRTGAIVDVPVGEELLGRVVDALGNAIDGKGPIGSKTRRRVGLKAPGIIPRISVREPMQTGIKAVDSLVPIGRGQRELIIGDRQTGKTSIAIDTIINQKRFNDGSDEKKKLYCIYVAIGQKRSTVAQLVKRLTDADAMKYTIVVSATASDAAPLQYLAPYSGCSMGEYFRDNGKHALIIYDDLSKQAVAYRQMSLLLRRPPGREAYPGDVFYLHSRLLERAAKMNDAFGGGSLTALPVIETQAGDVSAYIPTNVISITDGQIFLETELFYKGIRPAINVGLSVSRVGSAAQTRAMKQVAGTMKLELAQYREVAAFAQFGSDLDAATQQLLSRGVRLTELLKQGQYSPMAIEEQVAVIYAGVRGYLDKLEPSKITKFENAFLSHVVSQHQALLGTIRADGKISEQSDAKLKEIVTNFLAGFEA
T2 sequence (P36542 26-298 partner): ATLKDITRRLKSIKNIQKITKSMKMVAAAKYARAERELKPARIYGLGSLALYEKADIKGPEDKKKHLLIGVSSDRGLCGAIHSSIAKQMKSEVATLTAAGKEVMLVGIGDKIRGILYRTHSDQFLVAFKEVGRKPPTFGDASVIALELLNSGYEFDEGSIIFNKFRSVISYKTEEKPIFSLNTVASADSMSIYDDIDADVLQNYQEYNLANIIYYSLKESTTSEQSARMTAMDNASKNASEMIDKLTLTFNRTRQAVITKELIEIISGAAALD
T2 sequence (P30049 23-168 partner): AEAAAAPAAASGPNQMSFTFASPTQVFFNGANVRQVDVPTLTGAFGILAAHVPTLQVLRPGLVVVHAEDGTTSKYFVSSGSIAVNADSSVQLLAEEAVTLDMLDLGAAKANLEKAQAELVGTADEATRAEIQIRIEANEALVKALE
T2 sequence (P56381 2-51 partner limits assumed): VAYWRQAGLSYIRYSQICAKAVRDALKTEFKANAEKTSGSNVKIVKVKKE
T1 sequence (P06576 48-529): as the sequence (P06576 48-529) above
T1 sequence (P25705 44-553 partner): as the sequence (P25705 44-553 partner) above
T1 sequence (P36542 26-298 partner): as the sequence (P36542 26-298 partner) above
T1 sequence (P30049 23-168 partner): as the sequence (P30049 23-168 partner) above
T1 sequence (P56381 2-51 partner limits assumed): as the sequence (P56381 2-51 partner limits assumed) above

Take “free-apoA-I: major apoprotein of HDL, single polypeptide chain of 243 amino acid residues, isolated from HDL3 by ion-exchange chromatography”: the 100% specific binding with HepG2 cells was 25,5 ng apoA-I bound per mg of cell proteins. In addition, in test [1], the “reduction of immunoreactivity of the anti β-subunit antibody” value is “more than 3 fold”. Besides, the “number of EGF-R at the cell surface” value with EGF receptor is “neither free apoA-I (FIG. 6-4L) nor ADP (FIG. 6-4M) are able to reduce”. Also, the “stimulation of the cholesterol efflux” value with HepG2 cells and IHH is 2 to 2.5 fold. In addition, in test [2], the “increase of [α32P]-ADP generated from [α-32P]-ATP” value is “up to 79%”.
